Patent publication US12503475B2 (Centessa Pharmaceuticals (UK) Limited, priority 2020, dated 2025)
Like-named read-outs stand apart in the source and are kept apart here.

Legend:
[1] = tested on: wild type (WT) colony mates; assay: Wake promoting efficacy, piezoelectric sleep/wake monitoring, wild type mice; assay type: in vivo, mouse; conditions: oral dose 30 mg/kg, dosed 5 h after light onset
Description: (§1) Wake-promoting efficacy of the compounds of the present disclosure may be evaluated in a model (e.g., the B6.Cg-Tg(HCRT-MJD)1Stak/J (Atax) mouse model of NT1 and wild type (WT) colony mates). The model (e.g., mouse model) may be monitored for rapid, non-invasive classification of sleep and wakefulness by unsupervised machine learning on physiologically relevant readouts, such as body movement and breath rate, after dosing of a compound of the present disclosure (e.g., oral dosing).
(§2) Wake-promoting efficacy was evaluated in the B6.Cg-Tg(HCRT-MJD)1Stak/J (Atax) mouse model of NT1 and wild type (WT) colony mates. Mice were monitored in home cages using piezoelectric sensors for rapid, non-invasive classification of sleep and wakefulness by unsupervised machine learning on physiologically relevant readouts, such as body movement and breath rate. Piezoelectric detection is highly correlated with conventional time-intensive electroencephalogram/electromyography measures of sleep/wake states in both WT and NT1 mice. In a counterbalanced design, mice were orally dosed at 5 h after light onset with test articles at 0 (vehicle), 3 and 30 mg/kg.

[2] = tested on: B6.Cg-Tg(HCRT-MJD)1Stak/J (Atax) mouse model of NT1; assay: Wake promoting efficacy, piezoelectric sleep/wake monitoring, Atax mice; assay type: in vivo; conditions: dosed 5 h after light onset
Description: as §1, §2

[3] = target: T1, human orexin type 2 receptor (hOX2R) (Homo sapiens, UniProt O43614); assay: Measurement of orexin type 2 receptor agonist activity (FLIPR calcium fluorescence); assay type: cell-based; conditions: CHO cells expressing hOX2R, FLIPR calcium fluorescence; for EC50: read-out: hOx2 pEC50 (converted); for Emax: CHO, read-out: hOx2 Emax (%)
T1 construct: expressed in transfected cells
T1 sequence (O43614 1-444): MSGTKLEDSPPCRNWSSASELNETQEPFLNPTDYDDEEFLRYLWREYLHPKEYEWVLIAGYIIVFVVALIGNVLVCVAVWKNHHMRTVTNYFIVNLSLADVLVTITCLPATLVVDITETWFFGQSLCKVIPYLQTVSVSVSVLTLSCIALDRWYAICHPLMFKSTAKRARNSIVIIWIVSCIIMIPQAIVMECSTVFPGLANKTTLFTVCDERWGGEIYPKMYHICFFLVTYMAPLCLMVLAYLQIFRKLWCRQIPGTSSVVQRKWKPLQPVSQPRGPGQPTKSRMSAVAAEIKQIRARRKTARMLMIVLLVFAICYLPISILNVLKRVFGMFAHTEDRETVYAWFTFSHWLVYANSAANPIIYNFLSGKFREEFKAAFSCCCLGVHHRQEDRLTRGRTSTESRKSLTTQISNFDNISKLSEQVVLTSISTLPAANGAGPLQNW
How it was run: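 Agonism was read as fluorescence in cells stably expressing human OX2R. E. is the response at 10 μM relative to orexin A as full agonist (100%).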

[4] = tested on: individuals with NT1; conditions: cited from earlier work
[5] = tested on: mouse models; conditions: cited from earlier work

Row | Molecule | Wake % time 1 h post dose (increase from vehicle) [1] [%] | Wake % time 1 h post dose (increase from vehicle) ([2]; oral dose 3 mg/kg) [%] | Wake % time 1 h post dose (increase from vehicle) ([2]; oral dose 30 mg/kg) [%] | EC50 [3] [nM] | Emax [3] [%] | further results
1 | CS(=O)(=O)N[C@@H]1[C@H](Cc2cccc(-c3ccccc3)c2F)N(C(=O)[C@H]2CCO2)CC12CC2 (single isomer, unassigned) [Example 21] | 14.4 | 17.5 | 27.9 | – | – | –
2 | CCS(=O)(=O)N[C@@H]1[C@H](Cc2cccc(-c3cccc(F)c3)c2F)N(C(=O)[C@H]2CCO2)CC12CC2 [Compound 129, N-((6S,7S)-6-((2,3′-difluoro-[1,1′-biphenyl]-3-yl)methyl)-5-((R)-oxetane-2-carbonyl)-5-azaspiro[2.4]heptan-7-yl)ethanesulfonamide] | 19.3 | – | 25.0 | 0.0794 to 1 | 90 to 100 | –
3 | O=C([C@H]1CCO1)N1CC2(CC2)[C@H](NS(=O)(=O)C(F)F)[C@@H]1Cc1cccc(-c2ccccc2)c1F [Compound 144, 1,1-difluoro-N-((6S,7S)-6-((2-fluoro-[1,1′-biphenyl]-3-yl)methyl)-5-((R)-oxetane-2-carbonyl)-5-azaspiro[2.4]heptan-7-yl)methanesulfonamide] | 27.2 | 26.7 | 29.2 | 0.0794 to 1 | 90 to 100 | –
4 | O=C([C@H]1CCO1)N1CC2(CC2)[C@H](NS(=O)(=O)CF)[C@@H]1Cc1cc(F)cc(-c2ccccc2)c1F [Compound 145, N-((6S,7S)-6-((2,5-difluoro-[1,1′-biphenyl]-3-yl)methyl)-5-((R)-oxetane-2-carbonyl)-5-azaspiro[2.4]heptan-7-yl)-1-fluoromethanesulfonamide] | – | – | – | 0.0794 to 1 | 90 to 100 | Wake % time 1 h post dose (increase from vehicle) ([1]; 30 mg/kg): 25.8%; Wake % time 1 h post dose (increase from vehicle) ([1]; listed as 59, 30 mg/kg): 21.1%; Wake % time 1 h post dose (increase from vehicle) ([2]; oral dose 3 mg/kg, 3 mg/kg): 26.9%; Wake % time 1 h post dose (increase from vehicle) ([2]; oral dose 3 mg/kg, listed as 59, 3 mg/kg): 35.5%; Wake % time 1 h post dose (increase from vehicle) ([2]; oral dose 30 mg/kg, 30 mg/kg): 28.3%; Wake % time 1 h post dose (increase from vehicle) ([2]; oral dose 30 mg/kg, listed as 59, 30 mg/kg): 48.6%
5 | O=C([C@H]1CCO1)N1CC2(CC2)[C@H](NS(=O)(=O)C(F)F)[C@@H]1Cc1cccc(-c2cccc(F)c2)c1F [Compound 154, N-((6S,7S)-6-((2,3′-difluoro-[1,1′-biphenyl]-3-yl)methyl)-5-((R)-oxetane-2-carbonyl)-5-azaspiro[2.4]heptan-7-yl)-1,1-difluoromethanesulfonamide] | – | 24.4 | 24.5 | 0.0794 to 1 | 90 to 100 | –
6 | O=C([C@H]1CCO1)N1CC2(CC2)[C@H](NS(=O)(=O)C(F)F)[C@@H]1Cc1cccc(-c2cc(F)cc(F)c2)c1F [Compound 175] | – | 25.3 | 29 | 0.0794 to 1 | 90 to 100 | –
7 | COC(=O)N1CCC[C@H](NS(C)(=O)=O)[C@@H]1CO[C@H]1CC[C@@H](c2ccccc2)CC1 [TAK-925] | – | – | – | – | – | cataplexy [4]: trends for decreasing cataplexy; wakefulness [4]: substantial levels of increased wakefulness; wakefulness ([5]; subcutaneous, WT mice): modestly increased wakefulness
8 | COc1ccc(-c2cccc(C(=O)N(C)C)c2)cc1S(=O)(=O)Nc1cccc(NCCNC(=O)c2ccccc2N(C)C)c1 [YNT-185] | – | – | – | – | – | sleep-onset REM periods and cataplexy-like events ([5]; NT1 mouse model): decrease sleep-onset REM periods and cataplexy-like events; wakefulness ([5]; intraperitoneally or ICV, wild type (WT) and orexin ligand-deficient mice): modestly increases wakefulness
9 | N-((6S,7S)-6-((2-fluoro-[1,1′- biphenyl]-3-yl)methyl)-5-((R)- 2-(fluoromethyl)azetidine-1- carbonyl)-5- azaspiro[2.4]heptan-7- yl)metbanesulfonamide [Compound 314] | – | – | – | – | – | hOx2 Emax (%) [3]: A (Emax ranging between 90 and 100); hOx2 pEC50 [3]: **** (pEC50 ranging between 8.0 and 9.0)
